Data from the NIST ThermoML archive (doi:10.1016/j.jct.2018.07.025).
± gives the expanded uncertainty stated by the source.

Assays:
[1] = Crystal; DTA
[2] = Molar enthalpy of transition or fusion; conditions: Crystal; DSC

| Compound | Normal melting temperature [1] [°C] | Molar enthalpy of transition or fusion [2] [kcal/mol] |
| --- | --- | --- |
| COC(=O)N(O)c1ccccc1COc1ccn(-c2ccc(Cl)cc2)n1 | 143.30 ± 1.1 | 12.3 ± 0.311 |
| COC(=O)N(OC)c1ccccc1COc1ccn(-c2ccc(Cl)cc2)n1 [Pyraclostrobin] | 60.60 ± 1.1 | 7.22 ± 0.239 |
